Measurements published in patent US20110275647A1, “PYRIMIDIN-4-(3H)-ONE DERIVATIVES” (MSD K.K., priority 2009, published 2011).

Target: T1, human MGAT2 (Homo sapiens, UniProt Q3SYC2)
T1 construct: made in house; host or cells: Pichia pastoris (vector pPICZA), membrane fraction
Assay: MGAT2 inhibitory activity test
Format: biochemical
Settings: MGAT2-expressed yeast membrane fraction, [14C]-oleoyl-CoA, 37° C. for 30 minutes
Description: Human MGAT2 genes were amplified by PCR using primers described below from human cDNA library (Clontech).
The amplified human MGAT2 genes were introduced into a yeast expression vector pPICZA (Invitrogen). The resultant expression plasmid was introduced into an yeast (Pichia pastris) by electroporation to produce a recombinant yeast. The recombinant yeast was cultured in the presence of 0.5% methanol for 72 hours, and the cells were crushed using glass beads in 10 mM Tris pH 7.5, 250 mM sucrose and 1 mM EDTA, followed by adjusting the membrane fraction by centrifugation to use the adjusted membrane fraction as an enzyme source.
To the reaction solution, 100 μl of 2-propanol/heptan (80:20) was added, the mixture was stirred well, followed by addition of 200 μl of heptane and further stirring the mixture. After centrifugation, the heptane layer was collected, 80 μl of ethanol/0.1N NaOH/H2O (50:5:45) was added, the mixture was thus stirred, followed by recentrifuging the mixture and collecting the heptane layer. After exsiccation of the resultant heptane layer, 100 μl of Microscint 0 (PerkinElmer) was added, and the radioactivity was measured with a liquid scintillation counter. The inhibitory activity was calculated from the following formula:
Inhibition rate=100−(radioactivity in case of addition of test compound−background)/(radioactivity in case of addition of no test compound−background)×100
wherein the background means the radioactivity in case of addition of no membrane fraction.

T1 sequence (Q3SYC2 whole entry): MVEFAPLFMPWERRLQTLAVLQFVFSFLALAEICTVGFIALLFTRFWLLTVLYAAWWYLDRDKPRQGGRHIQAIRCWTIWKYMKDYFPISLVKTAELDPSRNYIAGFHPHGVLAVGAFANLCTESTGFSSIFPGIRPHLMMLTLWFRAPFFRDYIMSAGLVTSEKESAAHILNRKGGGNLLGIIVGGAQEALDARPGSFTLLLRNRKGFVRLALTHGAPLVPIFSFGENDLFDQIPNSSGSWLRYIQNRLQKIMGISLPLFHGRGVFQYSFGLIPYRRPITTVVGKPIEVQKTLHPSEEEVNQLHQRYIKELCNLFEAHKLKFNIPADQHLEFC

IC50 | Compound
0.114 µM | O=c1c2c(nc(SCc3ccnnc3)n1-c1ccccc1)CCN(c1nc3cc(C(F)(F)F)ccc3[nH]1)C2 [Example 4, 3-phenyl-2-[(pyridazin-4-ylmethyl)thio]-6-[5-(trifluoromethyl)-1H-benzimidazol-2-yl]-5,6,7,8-tetrahydropyrido[4,3-d]pyrimidin-4(3H)-one]
0.817 µM | O=c1c2c(nc(SCc3ccccc3)n1-c1ccccc1)CCN(c1nc3cc(F)c(F)cc3[nH]1)C2 [Example 1, 6-(5,6-difluoro-1H-benzimidazol-2-yl)-3-phenyl-2-[(phenylmethyl)thio]-5,6,7,8-tetrahydropyrido[4,3-d]pyrimidin-4(3H)-one]
0.184 µM | O=c1c2c(nc(SCc3ccccc3)n1-c1ccccc1)CCN(c1nc3cc(C(F)(F)F)ccc3[nH]1)C2 [Example 2, 6-(5-trifluoromethyl-1H-benzimidazol-2-yl)-3-phenyl-2-[(phenylmethyl)thio]-5,6,7,8-tetrahydropyrido[4,3-d]pyrimidin-4(3H)-one]

Compound | IC50
O=c1c2c(nc(SCc3cccnc3)n1-c1ccccc1)CCN(c1nc3cc(C(F)(F)F)ccc3[nH]1)C2 [Example 3, 3-phenyl-2-[(pyridin-3-ylmethyl)thio]-6-[5-(trifluoromethyl)-1H-benzimidazol-2-yl]-5,6,7,8-tetrahydropyrido[4,3-d]pyrimidin-4(3H)-one] | 0.056 µM
